Reference: patent US20240299560A1, “DEOXYCHOLIC ACID-PEPTIDE CONJUGATE HAVING ANTI-OBESITY ACTIVITY AND USE THEREOF” (CAREGEN CO, LTD., priority 2020, published 2024)
Where a SMILES comes first, the peptide text is derived from it. [ ]: non-standard residue; d: D form. The star is where a group is joined. ξ: configuration not given here. Deoxycholoyl = C[C@H](CCC(=O)*)[C@H]1CC[C@H]2[C@@H]3CC[C@@H]4C[C@H](O)CC[C@]4(C)[C@H]3C[C@H](O)[C@]12C; ξF = NC(Cc1ccccc1)C(=O)O; ξL = CC(C)CC(N)C(=O)O; ξK = NCCCCC(N)C(=O)O; ξNva = CCCC(N)C(=O)O

How the values were obtained:
[1] = Solubility in water, visual observation; assay type: physicochemical; conditions: 1 mg in 90 μL distilled water
Method: Solubilities of the deoxycholic acid-peptide conjugate prepared in Example 2 and deoxycholic acid were visually observed and compared.
Specifically, 90 μL of distilled water was added to an E. tube containing 1 mg each of the deoxycholic acid-peptide conjugate and the deoxycholic acid, and dissolution was confirmed.

[2] = test system: 3T3-L1 cells; experiment: Oil red O staining of fat accumulation in differentiated adipocytes; assay type: cell-based; conditions: 1 μM, 3T3-L1 adipocytes; for lipid accumulation amount: oil red O absorbance 510 nm
Method: 3T3-L1 cells as preadipocytes were purchased from the American Type Culture Collection (ATCC) and used in an experiment. 3T3-L1 was a cell line widely used to study the metabolic process of adipocytes, and as the differentiation of the cells was activated, fat accumulation in adipocytes was activated to induce obesity.
(§1) The preadipocytes 3T3-L1 were cultured in a DMEM containing 2% fetal bovine serum (FBS) under conditions of 37° C. and 5% CO2. The preadipocytes 3T3-L1 were dispensed in a 12-well plate at a density of 1×10^5 cells/well, and then further maintained for 2 days at a 100% confluency point. The preadipocytes were cultured for 2 days in a DMEM medium (hereinafter referred to as a ‘differentiation medium’) containing a differentiation ingredient (including 10 μg/ml insulin, 0.1 μM dexamethasone and 0.5 mM IBMX) and 10% FBS to induce the differentiation into adipocytes. After 48 hours of culture, the preadipocytes were cultured for 2 days in 10% FBS DMEM (hereinafter referred to as a ‘culture medium’) containing 1 μg/ml insulin. Thereafter, the culture medium was replaced with a 10% FBS DMEM culture medium every 2 days. During the induction of adipocytes differentiation, depending on a purpose of the experiment, a deoxycholic acid-peptide conjugate was treated or not in each culture medium at a concentration of 1 μM or 10 μM, and the differentiation degree of adipocytes was observed on day 7, when the differentiation was completed.
Specifically, the degree of differentiation of adipocytes induced in Preparation Example 1 was first confirmed under a microscope through oil red O staining, and for the staining degree of adipocytes, the degree of fat accumulated in the cells was calculated by measuring absorbance with a spectrophotometer at a wavelength of 510 nm. A group treated with a β3 adrenergic receptor agonist CL316243 or TNF-α was used as a positive control group.
In order to compare the fat accumulation inhibitory effects in the case of treating the deoxycholic acid-peptide conjugate and the case of treating the deoxycholic acid or the peptide of SEQ ID NO: 1 alone, the degree of differentiation of adipocytes and the degree of lipid accumulation were measured in the same manner as in Experimental Example 1-1. A group treated with TNF-α was used as a positive control group.

[3] = test system: white adipose tissue; experiment: Glycerol release (lipolysis) from cultured adipose tissue; assay type: cell-based, mice; conditions: for glycerol release amount: 1 μM, adipose tissue
Method: Neutral fat stored in adipose tissue was decomposed into fatty acids and glycerol for energy production or cell signaling. Therefore, the lipolysis effect of neutral fat accumulated in the adipose tissue was confirmed by measuring the release amount of free glycerol.
Specifically, in female mice fed with a high-fat diet (Rodent Diet with 60% Kcal Fat, Research Diets, USA), a fat pad, which was white adipose tissue, was isolated, and each 400 mg of adipose tissue per well was placed in a 12-well plate, and then cultured for 48 hours in a culture medium (DMEM media serum free) to be stabilized. During the culture, the peptide conjugate was treated at concentrations of 1 μM, 10 μM, and 100 μM, and as a positive control group, 20 nM of TNFα was treated and cultured for 48 hours to obtain a supernatant, and the amount of glycerol was measured using a glycerol colorimetric assay kit (Cayman chemical, USA).
In order to compare the lipolysis effects in the case of treating the deoxycholic acid-peptide conjugate and the case of treating the deoxycholic acid or the peptide of SEQ ID NO: 1 alone, the amount of glycerol released from the adipose tissue was measured in the same manner as in Experimental Example 3-1. A group treated with TNF-α was used as a positive control group.

[4] = test system: adipose tissue; experiment: H&E staining, size of adipocytes in adipose tissue; assay type: cell-based, BL/6 mice; conditions: vs control group
Method: (§2) Adipose tissue was collected from the abdomen of 9-week-old BL/6 mice, placed in a 100 mm×15 mm culture dish, and then cultured in a culture medium overnight. The adipose tissue was divided to have the same weight, transferred to a 24-well plate, and then used in the following Experimental Examples.
In order to confirm the lipolysis effect in adipose tissue by the deoxycholic acid-peptide conjugate, H&E staining was performed on the adipose tissue obtained in Preparation Example 2 to confirm the sizes of adipocytes.
Specifically, the adipose tissue was cut, attached to a paraffin slide, and dried at 50° C. The slide attached with the dried adipose tissue was placed in Xylene 1, 2, and 3 for 5 minutes each, and the paraffin was removed. Thereafter, the slide was put into 100% ethanol for 2 minutes, and then sequentially put into 90%, 80%, and 70% ethanol to be re-hydrated. The re-hydrated slide was stained in a hematoxylin solution, washed, and then stained with Eosin Y. Thereafter, the slide was sequentially put into 90%, 80%, and 70% ethanol, and then put into Xylene 3, 2, and 1, and then mounted with a xylene-based mounting medium to prevent air bubbles from entering the tissue, and then dried. Then, the dried slide was observed under an optical microscope.

[5] = test system: adiponectin and leptin genes; experiment: RT-PCR of fat metabolism genes in adipocytes; assay type: cell-based; conditions: 1 and 10 μM, 1, 3, 6 hours
Method: as §1, with “completed. […]” for “completed.”

[6] = test system: AMPKa1, HSL, PGC1a genes; experiment: RT-PCR of lipolysis-related genes in adipocytes; assay type: cell-based; conditions: 1 and 10 μM; 24 hours; differentiated adipocytes
Method: as §1
(§3) The adipocytes obtained in Preparation Example 1 or the adipose tissue obtained in Preparation Example 2 were treated with the deoxycholic acid-peptide conjugate of the present invention, cultured, and then recovered, and RNA was extracted with Trizol (Thermo Fisher Scientific, USA). From the extracted RNA, complementary DNA to RNA was obtained using TOPScript™ RT DryMIX (enzynomics, Korea) and then polymerase chain reaction (PCR) was performed using TOPsimple™ DryMIX-nTaq (enzynomics, Korea). Thereafter, PCR products were loaded on a 1.5% agarose gel to compare the mRNA expression levels of the growth factors.
Specifically, the differentiated adipocytes obtained in Preparation Example 1 were treated with 1 μM and 10 μM of the deoxycholic acid-peptide conjugate, and then cultured for 24 hours. […]

[7] = test system: HSL and PLIN genes; experiment: RT-PCR of lipolysis genes in adipose tissue; assay type: cell-based, BL/6 mice; conditions: 1 and 10 μM, 72 hours
Method: as §2, §3
Specifically, the adipose tissue obtained in Preparation Example 2 was treated with 1 μM and 10 μM of the deoxycholic acid-peptide conjugate and 1 μM of CL316243 (Sigma, USA) as a positive control group and cultured for 72 hours. […]

[8] = test system: ACCα, FAS and PPARγ genes; experiment: RT-PCR of adipogenesis genes in adipose tissue; assay type: cell-based, BL/6 mice; conditions: 1 and 10 μM, 72 hours
Method: as §2, §3
(§4) Specifically, the adipose tissue obtained in Preparation Example 2 was treated with 1 μM and 10 μM of the deoxycholic acid-peptide conjugate and 1 μM of CL316,243 (Sigma, USA) as a positive control group and further cultured for 72 hours. After the cells were recovered and the polymerase chain reaction was performed by the method described in Experimental Example 4-1, the expression products were loaded on an agarose gel to confirm the mRNA expression levels of genes related to adipogenesis.

[9] = test system: UCP1, PRDM and Cidea genes; experiment: RT-PCR of thermogenesis-related genes of brown adipocytes in adipose tissue; assay type: cell-based, BL/6 mice; conditions: 1 and 10 μM, 72 hours
Method: as §2, §3, §4

[10] = test system: IL-15 gene in C2C12 cells; experiment: RT-PCR of IL-15 gene in muscle cells; assay type: cell-based, mouse; conditions: 1 and 10 μM; 6 hours; C2C12 myotubes
Method: as §3
Specifically, C2C12 cells, which were mouse myoblasts, were inoculated into a 6-well plate at a density of 2×10^5 cells/well, and then cultured in a DMEM (10% FBS) medium for 3 days. When the cells had grown to about 70 to 80% of the plate, the medium was replaced with a differentiation medium (DMEM, 5% horse serum) and then cultured for 3 days. Thereafter, the medium was replaced with the differentiation medium (DMEM, 2% horse serum) and cultured for 4 days to induce differentiation from myoblasts to myotubes. Then, the medium was replaced with a serum-free medium and cultured for 2 hours, and treated with 1 μM and 10 μM of the deoxycholic acid-peptide conjugate for 6 hours and cultured in an environment of 37° C. and 5% CO2. […]

Compound | solubility in water (dissolution, visual) [1] | lipid accumulation amount [2] [%] | glycerol release amount [3] [%] | fat staining in adipocytes (oil red O) ([2]; day 7, positive control CL316243 or TNF-α) | amount of glycerol released ([3]; 1, 10, 100 μM, 48 hours, adipose tissue of high-fat diet mice, vs control group) | sizes of adipocytes [4] | adiponectin mRNA expression [5] | leptin mRNA expression [5] | AMPKa1 mRNA expression [6] | HSL mRNA expression [6] | PGC1a mRNA expression [6] | HSL mRNA expression [7] | PLIN mRNA expression [7] | ACCα mRNA expression [8] | FAS mRNA expression [8] | PPARγ mRNA expression [8] | Cidea mRNA expression [9] | PRDM mRNA expression [9] | UCP1 mRNA expression [9] | IL-15 mRNA expression [10]
C[C@H](CCC(=O)O)[C@H]1CC[C@H]2[C@@H]3CC[C@@H]4C[C@H](O)CC[C@]4(C)[C@H]3C[C@H](O)[C@]12C [deoxycholic acid, 3,12-dihydroxycholan-24-oic acid] | hardly dissolved | 93 | 116 |  |  |  |  |  |  |  |  |  |  |  |  |  |  |  |  | 
CCCC(NC(=O)C(CC(C)C)NC(=O)C(Cc1ccccc1)NC(=O)C(CCCCN)NC(=O)CC[C@@H](C)[C@H]1CC[C@H]2[C@@H]3CC[C@@H]4C[C@H](O)CC[C@]4(C)[C@H]3C[C@H](O)[C@]12C)C(=O)NC(CCCCN)C(=O)O (stereo partly shown) [deoxycholic acid-peptide conjugate] (Deoxycholoyl-[ξK][ξF][ξL][ξNva][ξK]-OH) | completely dissolved | 78 | 175 | reduced at the same level as the positive control group | increased in a concentration-dependent manner | decreased | increased | increased | increased | increased | increased | increased in a concentration dependent manner | increased in a concentration dependent manner | decreased | decreased | decreased | increased | increased | increased | increased
Lys Phe Leu Ile Lys (KFLIK) [peptide of SEQ ID NO: 1] |  | 89 | 106 |  |  |  |  |  |  |  |  |  |  |  |  |  |  |  |  | 
